32 compounds from patent publication US20070082880A1 (priority 2005, published 2007) can be followed below.

The assay deals with T1, human PKCθ full length enzyme (Homo sapiens, UniProt Q04759).
T1 construct: human PKCθ full length enzyme (Panvera Catalog No. P2996); purchased Panvera P2996
T1 sequence (Q04759 whole entry): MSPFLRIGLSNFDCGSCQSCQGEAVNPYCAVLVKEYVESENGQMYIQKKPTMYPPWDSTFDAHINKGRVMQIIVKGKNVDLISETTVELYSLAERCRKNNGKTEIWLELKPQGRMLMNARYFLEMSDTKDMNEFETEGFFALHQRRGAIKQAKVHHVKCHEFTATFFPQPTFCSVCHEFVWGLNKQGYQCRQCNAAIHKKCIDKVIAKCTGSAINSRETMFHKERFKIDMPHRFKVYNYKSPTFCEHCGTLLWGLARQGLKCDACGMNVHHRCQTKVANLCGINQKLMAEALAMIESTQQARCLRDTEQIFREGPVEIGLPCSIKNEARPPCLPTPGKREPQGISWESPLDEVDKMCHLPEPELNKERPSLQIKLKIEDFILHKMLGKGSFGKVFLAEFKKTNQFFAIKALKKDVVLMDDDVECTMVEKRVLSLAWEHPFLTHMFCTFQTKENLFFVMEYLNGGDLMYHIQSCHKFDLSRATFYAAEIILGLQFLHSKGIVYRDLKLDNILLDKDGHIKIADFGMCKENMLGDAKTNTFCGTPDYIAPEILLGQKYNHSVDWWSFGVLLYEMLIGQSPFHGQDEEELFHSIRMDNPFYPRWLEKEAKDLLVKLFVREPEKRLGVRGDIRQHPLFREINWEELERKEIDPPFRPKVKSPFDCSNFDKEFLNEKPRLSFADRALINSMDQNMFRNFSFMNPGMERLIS
As to the kind of experiment: PKCθ IMAP Assay. Format: biochemical. The note with it: average value when one or more samples were tested; ATP 6 uM, PKCθ 1 nM. Summed up:
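Full-length human PKCθ (1 nM final) with 6 uM ATP and 100 nM 5FAM-labelled peptide, 5% DMSO, 3.0 mM DTT in reaction buffer. 25 min at room temperature; IMAP bead binding 20 min, fluorescence polarization read. Compounds 2:1 serially diluted; no-ATP and no-enzyme wells as controls.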
`Cc1c(Nc2c(C#N)cnc3sc(-c4cc(CN(C)C)ccc4F)cc23)ccc2[nH]ccc12` [Compound 463, 2-{5-[(dimethylamino)methyl]-2-fluorophenyl}-4-[(4-methyl-1H-indol-5-yl)amino]thieno[2,3-b]pyridine-5-carbonitrile] yielded an IC50 of 14 nM. For `CN(C)Cc1cscc1-c1cc2c(Nc3ccc4[nH]ccc4c3)c(C#N)cnc2s1` [Compound 464, 2-{4-[(dimethylamino)methyl]-3-thienyl}-4-(1H-indol-5-ylamino)thieno[2,3-b]pyridine-5-carbonitrile], the IC50 turned out to be 77 nM. Compared with the last compound, the IC50 is about 5.5-fold higher. With `CN(C)Cc1ccc2sc(-c3cc4c(Nc5ccc6[nH]ccc6c5)c(C#N)cnc4s3)cc2c1` [Compound 465, 2-{5-[(dimethylamino)methyl]-1-benzothien-2-yl}-4-(1H-indol-5-ylamino)thieno[2,3-b]pyridine-5-carbonitrile] the figure was 49 nM; with `Cc1c(Nc2c(C#N)cnc3sc(-c4cc(CN(C)C)cc(OC(C)C)c4)cc23)ccc2[nH]ccc12` [Compound 466, 2-{3-[(dimethylamino)methyl]-5-isopropoxyphenyl}-4-[(4-methyl-1H-indol-5-yl)amino]thieno[2,3-b]pyridine-5-carbonitrile], 64 nM. Turning to `Cc1c(Nc2c(C#N)cnc3sc(-c4cc5cc(CN(C)C)ccc5s4)cc23)ccc2[nH]ccc12` [Compound 467, 2-{5-[(dimethylamino)methyl]-1-benzothien-2-yl}-4-[(4-methyl-1H-indol-5-yl)amino]thieno[2,3-b]pyridine-5-carbonitrile], the IC50 was found to be 171 nM. Turning to `Cc1c(Nc2c(C#N)cnc3sc(-c4csc(CN(C)C)c4)cc23)ccc2[nH]ccc12` [Compound 468, 2-{5-[(dimethylamino)methyl]-3-thienyl}-4-[(4-methyl-1H-indol-5-yl)amino]thieno[2,3-b]pyridine-5-carbonitrile], the IC50 was 16 nM. With `Cc1c(Nc2c(C#N)cnc3sc(-c4ccccc4CNCCCO)cc23)ccc2[nH]ccc12` [Compound 469, 2-(2-{[(3-hydroxypropyl)amino]methyl}phenyl)-4-[(4-methyl-1H-indol-5-yl)amino]thieno[2,3-b]pyridine-5-carbonitrile] the figure was 151 nM; with `Cc1c(Nc2c(C#N)cnc3sc(-c4ccccc4CNCCO)cc23)ccc2[nH]ccc12` [Compound 470, 2-(2-{[(2-hydroxyethyl)amino]methyl}phenyl)-4-[(4-methyl-1H-indol-5-yl)amino]thieno[2,3-b]pyridine-5-carbonitrile], 57 nM. With `N#Cc1cnc2sc(C3=CCNCC3)cc2c1Nc1cccc2[nH]ccc12` [Compound 473, 4-(1H-indol-4-ylamino)-2-(1,2,3,6-tetrahydropyridin-4-yl)thieno[2,3-b]pyridine-5-carbonitrile] the figure was 143 nM. As for `Cc1c(Nc2c(C#N)cnc3sc(C4=CCNCC4)cc23)ccc2[nH]ccc12` [Compound 474, 4-[(4-methyl-1H-indol-5-yl)amino]-2-(1,2,3,6-tetrahydropyridin-4-yl)thieno[2,3-b]pyridine-5-carbonitrile], the IC50 is 10 nM.

As for `Cc1c(Nc2c(C#N)cnc3sc(C4=CCN(Cc5ccccc5)CC4)cc23)ccc2[nH]ccc12` [Compound 476, 2-(1-benzyl-1,2,3,6-tetrahydropyridin-4-yl)-4-[(4-methyl-1H-indol-5-yl)amino]thieno[2,3-b]pyridine-5-carbonitrile], 153 nM corresponded to half-maximal inhibition (IC50). With `Cc1c(Nc2c(C#N)cnc3sc(C4CCNCC4)cc23)ccc2[nH]ccc12` [Compound 478, 4-[(4-methyl-1H-indol-5-yl)amino]-2-piperidin-4-ylthieno[2,3-b]pyridine-5-carbonitrile] the figure was 70 nM; with `Cc1c(Nc2c(C#N)cnc3sc(C4CCN(Cc5ccccc5)C4)cc23)ccc2[nH]ccc12` (centres unmarked) [Compound 479, 2-(1-benzylpyrrolidin-3-yl)-4-[(4-methyl-1H-indol-5-yl)amino]thieno[2,3-b]pyridine-5-carbonitrile], 1970 nM; with `Cc1c(Nc2c(C#N)cnc3sc(-c4cccc(OC[C@@H](C)O)c4)cc23)ccc2[nH]ccc12` [Compound 482, 2-(3-{[(2R)-2-hydroxypropyl]-oxy}phenyl)-4-[(4-methyl-1H-indol-5-yl)amino]thieno[2,3-b]pyridine-5-carbonitrile], 93 nM. With `Cc1c(Nc2c(C#N)cnc3sc(-c4cccc(OC[C@H](C)O)c4)cc23)ccc2[nH]ccc12` [Compound 483, 2-(3-{[(2S)-2-hydroxypropyl]-oxy}phenyl)-4-[(4-methyl-1H-indol-5-yl)amino]thieno[2,3-b]pyridine-5-carbonitrile] the figure was 59 nM; with `Cc1c(Nc2c(C#N)cnc3sc(-c4cccc(OC[C@H](O)CO)c4)cc23)ccc2[nH]ccc12` [Compound 484, 2-(3-{[(2R)-2,3-Dihydroxypropyl]-oxy}phenyl)-4-[(4-methyl-1H-indol-5-yl)amino]thieno[2,3-b]pyridine-5-carbonitrile], 17 nM; with `Cc1c(Nc2c(C#N)cnc3sc(-c4cccc(OC[C@@H](O)CO)c4)cc23)ccc2[nH]ccc12` [Compound 485, 2-(3-{[(2S)-2,3-Dihydroxypropyl]-oxy}phenyl)-4-[(4-methyl-1H-indol-5-yl)amino]thieno[2,3-b]pyridine-5-carbonitrile], 40 nM. `Cc1c(Nc2c(C#N)cnc3sc(-c4ccc(OC[C@H](O)CO)cc4)cc23)ccc2[nH]ccc12` [Compound 486, 2-(4-{[(2R)-2,3-dihydroxypropyl]-oxy}phenyl)-4-[(4-methyl-1H-indol-5-yl)amino]thieno[2,3-b]pyridine-5-carbonitrile] returned an IC50 of 70 nM. As for `Cc1c(Nc2c(C#N)cnc3sc(-c4ccc(OC[C@@H](O)CO)cc4)cc23)ccc2[nH]ccc12` [Compound 487, 2-(4-{[(2S)-2,3-dihydroxypropyl]-oxy}phenyl)-4-[(4-methyl-1H-indol-5-yl)amino]thieno[2,3-b]pyridine-5-carbonitrile], the IC50 worked out at 41 nM.

The compound `Cc1c(Nc2c(C#N)cnc3sc(-c4ccc(OC[C@H](C)O)cc4)cc23)ccc2[nH]ccc12` [Compound 488, 2-(4-{[(2S)-2-hydroxypropyl]-oxy}phenyl)-4-[(4-methyl-1H-indol-5-yl)amino]thieno[2,3-b]pyridine-5-carbonitrile] yielded an IC50 of 200 nM. This IC50 is about 4.9-fold higher than that of the compound before. With `Cc1c(Nc2c(C#N)cnc3sc(-c4ccc(OC[C@@H](C)O)cc4)cc23)ccc2[nH]ccc12` [Compound 489, 2-(4-{[(2R)-2-hydroxypropyl]-oxy}phenyl)-4-[(4-methyl-1H-indol-5-yl)amino]thieno[2,3-b]pyridine-5-carbonitrile], the midpoint of inhibition, the IC50, lay at 175 nM. With `Cc1c(Nc2c(C#N)cnc3sc(-c4ccccc4OC[C@@H](C)O)cc23)ccc2[nH]ccc12` [Compound 490, 2-(2-{[(2R)-2-hydroxypropyl]-oxy}phenyl)-4-[(4-methyl-1H-indol-5-yl)amino]thieno[2,3-b]pyridine-5-carbonitrile] the figure was 105 nM. `Cc1c(Nc2c(C#N)cnc3sc(-c4ccccc4OC[C@H](C)O)cc23)ccc2[nH]ccc12` [Compound 491, 2-(2-{[(2S)-2-hydroxypropyl]-oxy}phenyl)-4-[(4-methyl-1H-indol-5-yl)amino]thieno[2,3-b]pyridine-5-carbonitrile] came in with an IC50 of 177 nM. This IC50 lies about 1.7-fold higher than the previous one. In turn, `Cc1c(Nc2c(C#N)cnc3sc(-c4ccccc4OC[C@@H](O)CO)cc23)ccc2[nH]ccc12` [Compound 492, 2-(2-{[(2S)-2,3-dihydroxypropyl]-oxy}phenyl)-4-[(4-methyl-1H-indol-5-yl)amino]thieno[2,3-b]pyridine-5-carbonitrile] returned an IC50 of 50 nM. Against the preceding compound, the IC50 is about 3.5-fold lower. With `Cc1c(Nc2c(C#N)cnc3sc(-c4ccccc4OC[C@H](O)CO)cc23)ccc2[nH]ccc12` [Compound 493, 2-(2-{[(2R)-2,3-dihydroxypropyl]-oxy}phenyl)-4-[(4-methyl-1H-indol-5-yl)amino]thieno[2,3-b]pyridine-5-carbonitrile] the figure was 45 nM. Turning to `CN(C)Cc1cccc(-c2cc3c(Nc4cnc5[nH]ccc5c4Cl)c(C#N)cnc3s2)c1` [Compound 498, 4-(4-chloro-1H-pyrrolo[2,3-b]pyridin-5-ylamino)-2-(3-((dimethylamino)methyl)phenyl)thieno[2,3-b]pyridine-5-carbonitrile], 3 nM corresponded to half-maximal inhibition (IC50). Compound `N#Cc1c[n+]([O-])c2sccc2c1Nc1ccc2[nH]ccc2c1` [Compound 499, 4-(1H-indol-5-ylamino)thieno[2,3-b]pyridine-5-carbonitrile-7-oxide] returned an IC50 of 1320 nM.

`CCOC(=O)c1cc2c(Nc3ccc4[nH]ccc4c3)c(C#N)cnc2s1` [Compound 502, ethyl 5-cyano-4-(1H-indol-5-ylamino)thieno[2,3-b]pyridine-2-carboxylate]: the IC50 amounted to 1100 nM. This IC50 and that of the compound before are within 1.5-fold of each other. Regarding `Cc1c(Nc2c(C#N)cnc3scc(C(C)C)c23)ccc2[nH]ccc12` [Compound 503, 3-isopropyl-4-[(4-methyl-1H-indol-5-yl)amino]thieno[2,3-b]pyridine-5-carbonitrile], the midpoint of inhibition, the IC50, lay at 11 nM. As for `Cc1c(Nc2c(C#N)cnc3sc(-c4cnccn4)cc23)ccc2[nH]ccc12` [Compound 504, 4-[(4-methyl-1H-indol-5-yl)amino]-2-pyrazin-2-ylthieno[2,3-b]pyridine-5-carbonitrile], half-maximal inhibition (IC50) required 21 nM. This IC50 lies about 1.9-fold higher than the previous one. With `Cc1c(Nc2c(C#N)cnc3sc(-c4cccc5[nH]ccc45)cc23)ccc2[nH]ccc12` [Compound 505, 2-(1H-indol-4-yl)-4-[(4-methyl-1H-indol-5-yl)amino]thieno[2,3-b]pyridine-5-carbonitrile] the figure was 113 nM; with `Cc1c(Nc2c(C#N)cnc3sc(-c4cncnc4)cc23)ccc2[nH]ccc12` [Compound 506, 4-[(4-methyl-1H-indol-5-yl)amino]-2-pyrimidin-5-ylthieno[2,3-b]pyridine-5-carbonitrile], 17 nM.

As a reminder, the IC50 is the concentration needed to halve the response being measured.
